Assay results published in patent US10143696B2, “Methods and compositions for decreasing gastric emptying” (priority 2015, dated 2018).
“Also recorded” adds a separate entry of the source.

Assays:
Assay type in all cases: in vivo, rat
Sprague-Dawley rats [1] = assay: Gastric emptying of a test meal in rats
Method: Rats were fasted overnight (16-18 hours) with free access to water. The next morning, compound was administered and animals were individually housed in bedding-free cages with pre-weighed food available ad libitum and access to water for 2 hours. The water and food were then removed and the remaining food was re-weighed. Gastric emptying of the ingested meal was assessed 4 hours later. Animals were euthanized by CO2 inhalation followed by thoracotomy. The abdominal cavity was opened, the pylorus and cardia were clamped and the stomach was removed. The excised stomach was weighed and then opened along the greater curvature, rinsed with tap water, lightly dried and re-weighed. The amount of food in the stomach (grams) was estimated based on the difference between the total weight of the stomach plus its contents and the weight of the stomach after the contents were removed. The meal ingested (food intake) was determined by the difference between pre- and post-feeding weight at the end of the 2 hour period. Gastric emptying during the 4 hour experiment is represented as: Gastric emptying=[1−(gastric content/food intake)]×100. Gastric Secretion
Male, Sprague-Dawley rats (weighing between 229-264 g each and 4 rats per test group) were fasted overnight (19 hours). The rats were then orally administered 10 mg/kg, 30 mg/kg or 100 mg/kg of Compound A with a 0.5% MC or Capryol:Solutol:Polyethyleneglycol (CSP) vehicle or with a 0.5% MC or CSP vehicle alone. The rats were then placed in individual, bedding-free cages and allowed ad libitium access to pre-weighed food and water for two hours. The food and water were then removed and the food was reweighed. Gastric emptying was then assessed four hours later by euthanizing the rats and analyzing the stomach and stomach contents. […] Data are represented as the means+the standard error of the means (S.E.M). % Gastric Emptying in 4 hours=(1−(gastric content/food intake))×100. […] Data are represented as the means+S.E.M.
Male, Sprague-Dawley rats (weighing between 235-268 g each and 4-6 rats per test group) were fasted overnight (19 hours). The rats were then subcutaneously administered 10 mg/kg, 30 mg/kg or 100 mg/kg of carbamazepine (Compound B) with a 25% HPBCD vehicle or with a 25% HPBCD vehicle alone. Some test animals were not dosed (i.e., naïve). The rats were then placed in individual, bedding-free cages and allowed ad libitium access to pre-weighed food and water for two hours. The food and water were then removed and the food was reweighed. […] Data are represented as the means+S.E.M. % Gastric Emptying in 4 hours=(1−(gastric content/food intake))×100.
Male, Sprague-Dawley rats (weighing between 238-274 g each and 6 rats per test group) were fasted overnight (19 hours). The rats were then orally administered 30 mg/kg, 100 mg/kg or 300 mg/kg of carbamazepine (Compound B) with a 0.5% MC vehicle or with a 0.5% MC vehicle alone. The rats were then placed in individual, bedding-free cages and allowed ad libitium access to pre-weighed food and water for two hours. The food and water were then removed and the food was reweighed. […] Data are represented as the means+S.E.M. % Gastric Emptying in 4 hours=(1−(gastric content/food intake))×100.
Male, Sprague-Dawley rats (weighing between 235-276 g each and 4-6 rats per test group) were fasted overnight (19 hours).

Sprague-Dawley rats [2] = assay: Gastrointestinal transit, charcoal meal assay; conditions: for dosage level with significant effect on stomach weight / stomach weight: charcoal meal assay; for stomach weight: vs vehicle treated animals; for gastrointestinal transit (% small intestinal transit): charcoal meal, 60 minutes pretreatment, vs vehicle
Method: Small intestinal transit was measured based on a known method which involved the oral administration of a charcoal meal (Gmerek et al. (1986). “Independent central and peripheral mediation of morphine-induced inhibition of gastrointestinal transit in rats.” J Pharmacol Exp Ther 236(1): 8-13). Rats were fasted with free access to water for 18 hours. Test compound or vehicle was dosed prior to oral administration of a charcoal slurry containing activated charcoal, flour and water in a ratio of 1:2:7.5 (10 ml/kg orally). One hour after receiving the charcoal slurry, rats were euthanized by CO2 asphyxiation. The stomach and GI tract was excised from each animal. Whole stomach weight was recorded and the length of the small intestine (cm) (stomach to cecum) and the distance (cm) to the leading edge of charcoal was measured. Small intestinal transit data are expressed as a percentage of the distance traveled (i.e. % small intestinal transit=(distance charcoal traveled)/(total length of small intestine (stomach to cecum)×100). Pretreatment times were determined on the basis of pharmacokinetic data (not shown) and were as follows: Compound A, 60 minutes, Compound C, 60 minutes; carbamazepine, 60 minutes. Morphine was administered with a pretreatment time of 30 mins based on previous experience.

Sprague-Dawley rats [3] = assay: Gastric secretion volume and pH in fasted rats; conditions: lansoprazole 30 mg/kg orally, alone (Example 17)
Method: Gastric section and acidity was assessed by direct measurement in fasted animals (Melo et al. (2006). “Effect of acid secretion blockade on acute gastric mucosal lesions induced by Tityus serrulatus scorpion toxin in anaesthetized rats.” Toxicon 48(5): 543-549). Rats were fasted with free access to water for 24 hours on wire inserts without bedding. The next day, all rats were dosed orally with 0.5% MC (5 ml/kg) to remove any residual stomach contents and test compound or vehicle was administered. The animals were water deprived for 3 hours, anesthetized with isoflurane (5% in O2), and a laparotomy was conducted followed by tight ligation of the pylorus and cardia. After ligation, the stomach was removed and the rat was immediately euthanized by decapitation. The stomach was opened along the greater curvature and gastric fluid collected into Eppendorf tubes and centrifuged (5 min at 10×1000 g). pH was determined by pipetting gastric fluid directly onto an indicator stick (Whatman, Panpeha Plus, pH0-14). Data are represented as the mean volume and mean pH.
Male, Sprague-Dawley rats (weighing between 254-270 g each and 6 rats per test group) were fasted overnight (24 hours) on wire inserts without bedding. The rats were first orally dosed with 0.5% MC vehicle and then subcutaneously injected with 3 mg/kg or 10 mg/kg of Compound A with a 25% HPBCD vehicle or with a 25% HPBCD vehicle alone. The test animals were water deprived for 3 hours and then anesthetized with isoflurane and the pylorus and cardia were tightly ligated. The stomachs were then removed and the rats were euthanized. The gastric fluid was removed from the stomachs and collected in eppendorf tubes by cutting along the greatest curvature and spun in a centrifuge. Gastric secretion data were analyzed by a one-way ANOVA using a Bonferroni Multiple Comparison test, where *P<0.05 and **P<0.01 as compared to the appropriate vehicle. Data are represented as the means+S.E.M. PH data were analyzed by a one-way ANOVA using Dunnett's Multiple Comparison Test. Data are represented as the means+S.E.M.
This Example measured volume and pH of gastric secretion three hours post subcutaneous administration of 10 mg/kg of Compound A. The animals were water deprived during this time.

[4] = p.o. 30, 100, 300 mg/kg, 0.5% MC vehicle (Example 5)
[5] = s.c. 10, 30, 100 mg/kg, 25% HPBCD vehicle (Example 4)
[6] = comparison at equal or similar dosages, routes and vehicles
[7] = p.o. 10 mg/kg and 30 mg/kg, 0.5% MC vehicle (Example 6)
[8] = p.o. 100 mg/kg and 300 mg/kg, 0.5% MC vehicle (Example 7)
[9] = p.o. 100 mg/kg, 0.5% MC vehicle (Example 6)
[10] = s.c. 10, 30, 100 mg/kg, 25% HPBCD vehicle (Example 6)
[11] = i.p. 10, 30, 100 mg/kg, 25% HPBCD vehicle (Example 8)

With `NC(=O)N1c2ccccc2C=Cc2ccccc21` [Compound B, carbamazepine, reference compound] the “percent of gastric inhibition, oral 0.5% MC compared with subcutaneous 25% HPBCD” value (Sprague-Dawley rats [1]; equal dosage, Examples 4 and 5) was “numerically more potent”, the “% Gastric Emptying in 4 hours” value (Sprague-Dawley rats [1]; [4]) was “inhibits gastric emptying” and the food intake (Sprague-Dawley rats [1]; [4]) was “reduces food intake”. For the same compound, the stomach weight (Sprague-Dawley rats [1]; [4]) was “increases stomach weight”, the stomach weight (Sprague-Dawley rats [1]; s.c. 100 mg/kg, 25% HPBCD vehicle (Example 4)) was “stomach weight increase” and the “% Gastric Emptying in 4 hours” value (Sprague-Dawley rats [1]; [5]) was “inhibits the percent of gastric emptying”. The food intake (Sprague-Dawley rats [1]; [5]) was “food intake decreased”, the “dosage level with significant effect on stomach weight” value (Sprague-Dawley rats [2]) was 30 mg/kg and the stomach weight (Sprague-Dawley rats [2]) was “statistically significant increase in stomach weight”. For the same compound, the “gastrointestinal transit (% small intestinal transit)” value (Sprague-Dawley rats [2]) was “No statistically significant decrease in gastrointestinal transit; also recorded: decreasing trend”.
With `CN1CC[C@]23c4c5ccc(O)c4O[C@H]2[C@@H](O)C=C[C@H]3[C@H]1C5` [morphine, reference compound] the gastrointestinal transit (Sprague-Dawley rats [2]; rat, in vivo) was “less than 35%” and the “stomach weight (average)” value (Sprague-Dawley rats [2]; rat, in vivo) was “over 7 g”.
In the case of `NC(=O)[C@@H]1CC[C@H](c2ccc(OCc3ccccc3F)cc2)N1` [Compound C], the “gastric emptying inhibition potency compared between compounds” value (Sprague-Dawley rats [1]; [6]) is reported as “least potent”, the “% Gastric Emptying in 4 hours” value (Sprague-Dawley rats [1]; [7]) is reported as “did not affect” and the food intake (Sprague-Dawley rats [1]; [7]) is reported as “reduced food intake”. For the same compound, the stomach weight (Sprague-Dawley rats [1]; [7]) was “did not affect”, the “% Gastric Emptying in 4 hours” value (Sprague-Dawley rats [1]; [8]) was “inhibits gastric emptying” and the stomach weight (Sprague-Dawley rats [1]; [8]) was “increases stomach weight”. For the same compound, the “% Gastric Emptying in 4 hours” value (Sprague-Dawley rats [1]; [9]) was “inhibits the percentage of gastric emptying”, the food intake (Sprague-Dawley rats [1]; [9]) was “reduces food intake” and the stomach weight (Sprague-Dawley rats [1]; [9]) was “increases stomach weight”. The food intake (Sprague-Dawley rats [1]; p.o. 10-300 mg/kg, 0.5% MC vehicle (Example 7)) was “reduces food intake”, the “% Gastric Emptying in 4 hours” value (Sprague-Dawley rats [1]; [10]) was “did not inhibit the percentage of gastric emptying” and the food intake (Sprague-Dawley rats [1]; [10]) was “decreased”. The stomach weight (Sprague-Dawley rats [1]; [10]) was “decreased”, the “dosage level with significant effect on stomach weight” value (Sprague-Dawley rats [2]) was 100 mg/kg and the stomach weight (Sprague-Dawley rats [2]) was “statistically significant increase in stomach weight”. The “gastrointestinal transit (% small intestinal transit)” value (Sprague-Dawley rats [2]) was “No statistically significant decrease in gastrointestinal transit”.
`Cc1c(OCC(F)(F)F)ccnc1C[S+]([O-])c1nc2ccccc2[nH]1` (centres unmarked) [Lansoprazole, lansoprazole, reference compound] was tested, and the “pH of gastric secretion” value (Sprague-Dawley rats [3]) was “increase the pH” and the “volume of gastric secretion” value (Sprague-Dawley rats [3]) was “did not affect volume of gastric secretion”.
In the case of `COc1cc2nc(N3CCN(C(=O)C4CCCO4)CC3)nc(N)c2cc1OC` (centres unmarked) [terazosin, reference compound], the “% Gastric Emptying in 4 hours” value (Sprague-Dawley rats [1]; rat, in vivo) is reported as “Neither terazosin nor atenolol alone had a significant effect”.
With `NC1=N[C@H](O)[C@H]2[C@H]3O[C@]4(O)O[C@@H]([C@@H](O)[C@@]2(N1)[C@@H]4O)[C@]3(O)CO` [TTX, tetrodotoxin, reference compound] the “gastric emptying inhibition potency compared between compounds” value (Sprague-Dawley rats [1]; rat, in vivo) was “comparable to that achieved by 30 mg/kg of Compound A administered orally”, the “% Gastric Emptying in 4 hours” value (Sprague-Dawley rats [1]; rat, in vivo, sc) was “inhibits gastric emptying; also recorded: statistically significant decrease in gastric emptying” and the food intake (Sprague-Dawley rats [1]; rat, in vivo, sc) was “reduces food intake; also recorded: dose dependent decrease in food intake”.
For `O=S(=O)(Nc1nncs1)c1cc(Cl)c(Oc2ccc(C(F)(F)F)cc2-c2ccnnc2)cc1F` [Compound D], the “gastric emptying inhibition potency compared between compounds” value (Sprague-Dawley rats [1]; [6]) was “greater gastric emptying inhibition potency than Compounds B and C”, the stomach weight (Sprague-Dawley rats [1]; i.p. 10 mg/kg and 100 mg/kg, 25% HPBCD vehicle (Example 8)) was “increases stomach weight” and the “% Gastric Emptying in 4 hours” value (Sprague-Dawley rats [1]; [11]) was “inhibits gastric emptying”. For the same compound, the food intake (Sprague-Dawley rats [1]; [11]) was “reduces food intake”.
